In publication PMC8093860, “Anti-Hyperuricemic and Nephroprotective Effects of Dihydroberberine in Potassium Oxonate- and Hypoxanthine-Induced Hyperuricemic Mice” (Frontiers in Pharmacology, 2021):

Molecular target: T1, Xanthine oxidase (XOD) (Bos taurus, UniProt P80457)
T1 construct: gene XDH
Assay: spectrophotometric XOD inhibition assay at […] nm with xanthine substrate, cow milk enzyme
Format: biochemical

T1 sequence (P80457 2-1332): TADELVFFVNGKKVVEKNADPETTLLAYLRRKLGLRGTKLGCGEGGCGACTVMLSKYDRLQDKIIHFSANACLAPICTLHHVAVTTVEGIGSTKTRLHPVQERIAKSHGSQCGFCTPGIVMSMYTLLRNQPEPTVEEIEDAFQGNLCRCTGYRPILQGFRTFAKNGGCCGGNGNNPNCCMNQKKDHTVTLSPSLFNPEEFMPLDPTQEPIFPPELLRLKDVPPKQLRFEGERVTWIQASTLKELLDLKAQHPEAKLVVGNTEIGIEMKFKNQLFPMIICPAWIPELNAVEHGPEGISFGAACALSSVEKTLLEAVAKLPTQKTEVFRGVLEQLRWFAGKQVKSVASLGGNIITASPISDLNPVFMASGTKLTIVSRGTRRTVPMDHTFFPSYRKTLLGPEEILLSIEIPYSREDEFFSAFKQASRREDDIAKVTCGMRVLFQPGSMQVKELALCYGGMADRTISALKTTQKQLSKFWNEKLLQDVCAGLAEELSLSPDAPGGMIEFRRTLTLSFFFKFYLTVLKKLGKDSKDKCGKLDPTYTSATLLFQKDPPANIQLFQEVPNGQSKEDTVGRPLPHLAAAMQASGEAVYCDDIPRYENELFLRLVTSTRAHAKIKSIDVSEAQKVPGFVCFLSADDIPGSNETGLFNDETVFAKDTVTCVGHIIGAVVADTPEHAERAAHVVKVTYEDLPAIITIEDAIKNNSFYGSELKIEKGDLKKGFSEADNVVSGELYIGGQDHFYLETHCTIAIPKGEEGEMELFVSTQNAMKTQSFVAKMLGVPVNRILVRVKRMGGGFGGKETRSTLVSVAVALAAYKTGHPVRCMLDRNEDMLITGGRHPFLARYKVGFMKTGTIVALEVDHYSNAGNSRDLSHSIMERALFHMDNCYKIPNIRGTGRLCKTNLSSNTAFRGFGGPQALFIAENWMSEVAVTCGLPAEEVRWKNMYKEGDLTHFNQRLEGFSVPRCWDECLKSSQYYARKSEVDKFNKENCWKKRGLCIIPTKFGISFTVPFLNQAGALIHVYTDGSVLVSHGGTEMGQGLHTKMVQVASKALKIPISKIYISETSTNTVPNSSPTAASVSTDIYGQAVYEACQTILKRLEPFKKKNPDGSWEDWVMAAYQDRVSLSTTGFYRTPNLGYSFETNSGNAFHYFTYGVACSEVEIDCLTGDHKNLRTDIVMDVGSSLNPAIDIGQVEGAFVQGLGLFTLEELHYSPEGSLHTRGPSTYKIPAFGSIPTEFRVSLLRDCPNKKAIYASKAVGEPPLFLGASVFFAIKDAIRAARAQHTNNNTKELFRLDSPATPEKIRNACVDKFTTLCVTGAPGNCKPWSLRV

## COc1ccc2c(c1OC)CN1CCc3cc4c(cc3C1=C2)OCO4 [DHB, Dihydroberberine]
  IC50: 34.4 ± 2.84 µM
